Assay results from patent US9884049B2, “Microbicidal composition comprising an octoxynol and a quinolizidine alkaloid compound or a source thereof” (NOVICOL INTERNATIONAL HOLDING INC., priority 2014, dated 2018).

How the values were obtained:
[1] = test system: HIV; conditions: nearly 1,000 sex workers in Africa, versus placebo; cited from earlier work
[2] = test system: TZM-b1 cells; assay: Cytotoxicity, XTT assay
[3] = test system: TZM-b1 cells; assay: Cytotoxicity, CyQuant assay
[4] = test system: HIV-1MN; assay: Anti-HIV activity, MAGI assay in TZM-b1 cells; conditions: for EC50: HIV-1MN
[5] = test system: HIV-1ADA-M; assay: Anti-HIV activity, MAGI assay in TZM-b1 cells; conditions: for EC50: HIV-1ADA-M
[6] = Wash (washed four hours after, then 72 h)

Compound	HIV infection rate, higher than with placebo [1]	CC50 ([2]; No wash)	CC50 ([2]; Wash)	CC50 ([3]; No wash (72 h))	CC50 [3, 6]	TI (CC50/EC50) ([4]; CyQuant/HIV-1MN, No wash)	TI (CC50/EC50) ([4]; CyQuant/HIV-1MN, Wash)	EC50 ([4]; No wash)	EC50 ([4]; Wash)	TI (CC50/EC50) ([4]; XTT/HIV-1MN, No wash)	TI (CC50/EC50) ([4]; XTT/HIV-1MN, Wash)	TI (CC50/EC50) ([5]; CyQuant/HIV-1ADA-M, No wash)	TI (CC50/EC50) ([5]; CyQuant/HIV-1ADA-M, Wash)	EC50 ([5]; No wash)	EC50 ([5]; Wash)	TI (CC50/EC50) ([5]; XTT/HIV-1ADA-M, No wash)	TI (CC50/EC50) ([5]; XTT/HIV-1ADA-M, Wash)
nonoxynol-9	about 50%	–	–	–	–	–	–	–	–	–	–	–	–	–	–	–	–
IGEPAL® CA-630	–	0.0002 % (w/v)	0.0072 % (w/v)	0.0036 % (w/v)	0.0048 % (w/v)	2.95	1.55	0.0012 % (w/v)	0.0031 % (w/v)	0.13	2.31	9.73	1.38	0.00037 % (w/v)	0.0035 % (w/v)	0.43	2.05
O=C1CCC[C@@H]2[C@H]3CCCN4CCC[C@@H](CN12)[C@@H]34 [Matrine, matrine]	–	0.3122 % (w/v)	1.1040 % (w/v)	0.6240 % (w/v)	0.3530 % (w/v)	8.91	7.06	0.0700 % (w/v)	0.0500 % (w/v)	4.46	22.08	3.01	0.89	0.2075 % (w/v)	0.3948 % (w/v)	1.50	2.80
